Laboratory results from ChEMBL document CHEMBL5365513, “Discovery of Selective Tertiary Amide Inhibitors of Cyclin-Dependent Kinase 2 (CDK2)” (ACS Med Chem Lett, 2023).
≈ marks a conversion by molar mass, not a printed value. Calls of active or inactive are those of the source. No cut-off for these calls is given here.

What was measured:
[1] = Metabolic stability in mouse liver microsomes assessed as clearance at 1 uM incubated upto 180 mins by LC/MS-MS analysis; type: ADME, Microsome
[2] = Metabolic stability in human liver microsomes assessed as clearance at 1 uM incubated upto 180 mins by LC/MS-MS analysis; type: ADME, Microsome
[3] = target: Cyclin-dependent kinase 2/cyclin E1 (Homo sapiens, UniProt P24941); assay: Binding affinity to CDK2/Cyclin E1 (unknown origin) using Ulight-MBP as substrate assessed as inhibition constant preincubated for 30 mins followed by substrate addition measured after 90 mins in presence of ATP by TR-FRET assay; type: protein-complex assay
[4] = Selectivity ratio of Ki for CDK4/Cyclin D3 (unknown origin) to Ki for CDK2/Cyclin E1 (unknown origin)
[5] = Antiproliferative activity against human OVISE cells assessed as inhibition of cell division incubated for 16 hrs by EdU incorporation assay; type: functional, cell-based
[6] = Selectivity ratio of IC50 for human SK-OV-3 cells to IC50 for human OVISE cells; type: functional
[7] = Selectivity ratio of Ki for ERK2 (unknown origin) to Ki for CDK2/Cyclin E1 (unknown origin)
[8] = Apparent permeability across apical to basolateral side in MDCK cells at 5 uM measured for 60 to 180 mins by LC-MS/MS analysis; type: ADME, cell-based, Canis lupus familiaris; details: dog, time 60-180 min
[9] = target: Mitogen-activated protein kinase 1 (Homo sapiens, UniProt P28482); assay: Binding affinity to ERK2 (unknown origin) using Ulight-MBP as substrate assessed as inhibition constant preincubated for 30 mins followed by substrate addition measured after 90 mins in presence of ATP by TR-FRET assay
Mitogen-activated protein kinase 1, sequence (P28482 whole entry): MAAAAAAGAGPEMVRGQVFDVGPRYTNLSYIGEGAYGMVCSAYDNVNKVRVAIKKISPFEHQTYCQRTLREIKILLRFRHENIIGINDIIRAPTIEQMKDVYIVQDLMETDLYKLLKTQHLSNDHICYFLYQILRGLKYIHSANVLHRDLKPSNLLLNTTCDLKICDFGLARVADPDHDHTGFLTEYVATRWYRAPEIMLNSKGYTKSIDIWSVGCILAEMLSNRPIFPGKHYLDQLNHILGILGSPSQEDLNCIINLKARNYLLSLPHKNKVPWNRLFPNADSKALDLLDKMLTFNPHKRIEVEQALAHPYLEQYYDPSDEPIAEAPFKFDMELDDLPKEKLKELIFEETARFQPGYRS

[10] = Selectivity ratio of Ki for CDK1/Cyclin A2 (unknown origin) to Ki for CDK2/Cyclin E1 (unknown origin)
[11] = Half life in CD-1 mouse at 1 mg/kg, iv measured for 5 mins by LC-MS/MS analysis; type: ADME, organism-based; details: in vivo; for half-life: CD-1, mouse
[12] = Volume of distribution at steady state in CD-1 mouse at 1 mg/kg, iv measured for 5 mins by LC-MS/MS analysis; type: ADME, organism-based; details: in vivo; for Vd: CD-1, mouse, read-out: Vdss
[13] = Lipophilicity, logD of compound at pH 7.4; type: physicochemical; details: buffer
[14] = Kinetic solubility of compound; type: physicochemical; details: read-out: Kinetic_solubility
[15] = Protein binding in human plasma assessed as unbound fraction incubated for 24 hrs by HPLC analysis; type: ADME, cell-free
[16] = Clearance in CD-1 mouse at 1 mg/kg, iv measured for 5 mins by LC-MS/MS analysis; type: ADME, organism-based; details: in vivo
[17] = AUC (infinity) in CD-1 mouse at 50 mg/kg, po measured for 24 hrs by LC-MS/MS analysis; type: ADME, organism-based; design: time 24 hrs, dose 50 mg/kg, route po; details: in vivo
[18] = Oral bioavailability in CD-1 mouse at 50 mg/kg measured for 24 hrs by LC-MS/MS analysis; type: ADME, organism-based; details: in vivo
MDR1 = assay: Efflux ratio of apparent permeability across basolateral to apical side to apical to basolateral side in MDCK-MDR1 cells at 5 uM measured for 60 to 180 mins by LC-MS/MS analysis; type: ADME, cell-based, Canis lupus familiaris; details: dog, time 60-180 min
[19] = target: Cyclin-dependent kinase 1 (Homo sapiens) (UniProt P06493); assay: Inhibition of CDK1 (unknown origin) at 0.1 uM
Cyclin-dependent kinase 1 (Homo sapiens), sequence (P06493 whole entry, looked up): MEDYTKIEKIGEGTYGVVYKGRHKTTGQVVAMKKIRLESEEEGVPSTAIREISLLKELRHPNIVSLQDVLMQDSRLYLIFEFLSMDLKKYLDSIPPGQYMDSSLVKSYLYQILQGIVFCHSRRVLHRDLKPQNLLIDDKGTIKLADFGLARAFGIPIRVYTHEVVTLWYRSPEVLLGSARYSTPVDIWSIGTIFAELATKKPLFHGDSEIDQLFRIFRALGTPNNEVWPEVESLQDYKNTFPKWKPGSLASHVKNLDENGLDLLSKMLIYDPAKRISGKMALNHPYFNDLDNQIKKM

OVCAR-3 [20] = assay: Antitumor activity against human OVCAR-3 cells xenografted in C.B-17 SCID.bg mouse assessed as tumor growth inhibition at 80 mg/kg, po qd treated for 3 days relative to control; type: functional; details: OVCAR-3, 72 h, time 3 day, read-out: TGI
OVCAR-3 [21] = assay: Antitumor activity against human OVCAR-3 cells xenografted in C.B-17 SCID.bg mouse assessed as tumor growth inhibition at 125 mg/kg, po qd treated for 3 days relative to control; type: functional; details: OVCAR-3, 72 h, time 3 day, read-out: TGI
OVCAR-3 [22] = assay: Antitumor activity against human OVCAR-3 cells xenografted in C.B-17 SCID.bg mouse assessed as tumor growth inhibition at 50 mg/kg, po bid treated for 3 days relative to control; type: functional; details: OVCAR-3, 72 h, time 3 day, read-out: TGI

| Compound | CLhep predicted at 1 µM [1] [mL/min/kg] | CLhep predicted at 1 µM [2] [mL/min/kg] | Ki [3] [nM] | Ratio Ki [4] | IC50 [5] [nM] | Ratio IC50 [6] | Ratio Ki [7] | Papp A→B at 5 µM [8] [×10⁻⁶ cm/s] | further results |
| --- | --- | --- | --- | --- | --- | --- | --- | --- | --- |
| CNS(=O)(=O)c1ccc(Nc2ncc3ccc(C(=O)N4C[C@H](F)C[C@@H]4C)cc3n2)c(C)c1 | 67 | 14 | 8.7 | 72 | 1500 | 13 |  |  |  |
| C[C@@H]1CCCN1C(=O)c1ccc2cnc(NC3CCN(S(C)(=O)=O)CC3)nc2c1 | 37 | < 3.9 | 0.17 | 55 |  |  | > 10000 |  |  |
| C[C@H]1CCN1C(=O)c1ccc2cnc(NC3CCN(S(C)(=O)=O)CC3)nc2c1 | < 14 | < 3.9 | 0.13 | 16 |  |  |  |  |  |
| CNS(=O)(=O)c1ccc(Nc2ncc3ccc(C(=O)N4C[C@H](F)[C@@H]4C)nc3n2)c(F)c1 | 54 | 19 | 2.1 | 41 | 360 | 36 |  | 13 |  |
| C[C@H]1CCCN1C(=O)c1ccc2cnc(NC3CCN(S(N)(=O)=O)CC3)nc2c1 | 30 | < 3.9 | 0.18 | 78 |  |  | 2800 |  |  |
| O=C(N[C@H](CO)c1ccc(Cl)c(F)c1)c1ccc2cnc(NC3CCOCC3)cc2n1 |  |  | 11 |  |  |  |  |  | Ki [9]: 0.36 nM |
| C[C@H]1CCCN1C(=O)c1ccc2cnc(NC3CCN(S(C)(=O)=O)CC3)nc2c1 | 42 | < 3.9 | 71 | 4.2 |  |  | 110 |  |  |
| Cc1cc(S(C)(=O)=O)ccc1Nc1ncc2ccc(C(=O)N3CCC[C@@H]3C)cc2n1 | 58 | 13 | 17 | 42 |  |  | 310 |  |  |
| CNS(=O)(=O)c1ccc(Nc2ncc3ccc(C(=O)N4C[C@@H](F)C[C@@H]4C)cc3n2)c(C)c1 | 69 | 16 | 0.49 | 155 | 130 | 43 |  | 12 |  |
| CNS(=O)(=O)c1ccc(Nc2ncc3ccc(C(=O)N4C[C@@H](F)C[C@@H]4C)nc3n2)c(F)c1 | 56 | 13 | 1.1 | 155 | 260 | 38 |  | 4.9 |  |
| CC1CCCCN1C(=O)c1ccc2cnc(NC3CCOCC3)cc2n1 (racemic) |  |  | 750 |  |  |  | 13 |  |  |
| O=C(c1ccc2cnc(NC3CCOCC3)cc2n1)N1CCCC1 |  |  | 88 |  |  |  | 6.8 |  |  |
| C[C@@]1(O)CCC[C@H]1n1c(=O)c(C(F)F)cc2cnc(NC3CCN(S(C)(=O)=O)CC3)nc21 [EBVACICLIB] |  |  |  |  | 46 |  |  |  |  |
| O=C(c1ccc2cnc(NC3CCOCC3)cc2n1)N1CCCCCC1 |  |  | 240 |  |  |  | 28 |  |  |
| CNS(=O)(=O)c1ccc(Nc2ncc3ccc(C(=O)N4C[C@@H](O)[C@@H]4C)nc3n2)c(F)c1 | < 14 | < 3.9 | 1 | 89 | 430 | 47 |  | < 1 |  |
| O=C(N[C@H](CO)c1ccc(Cl)c(F)c1)c1ccc2cnc(NC3CCOCC3)nc2c1 |  |  | 7.9 |  |  |  |  |  | Ki [9]: 0.22 nM |
| CS(=O)(=O)N1CCC(Nc2ncc3ccc(C(=O)N4CCCC4)cc3n2)CC1 | 20 | < 3.9 | 9 | 16 |  |  | 330 |  |  |
| O=C(N[C@H](CO)c1ccc(Cl)c(F)c1)c1ccc2cnc(NC3CCOCC3)nc2n1 |  |  | 6.5 |  |  |  |  |  | Ki [9]: 0.17 nM |
| CC[C@H](Nc1nc(NCc2cnc(C)cc2C)c2ncn(C(C)C)c2n1)[C@@H](C)O [CYC-065] |  |  |  | 57 | 1100 |  |  |  | Ratio Ki [10]: 61 |
| O=C(c1ccc2cnc(NC3CCOCC3)cc2n1)N1CCC1 |  |  | 13 |  |  |  | 1.8 |  |  |
| CNS(=O)(=O)c1ccc(Nc2ncc3ccc(C(=O)N4C[C@@H](C#N)[C@@H]4C)nc3n2)c(F)c1 | 53 | 11 | 0.44 | 186 | 53 | 83 |  | 5 | half-life [11]: 21.6 min; Vd [12]: 0.35 L/kg; logD [13]: 1.5; solubility kinetic [14]: 3 µM (≈ 1.37 µg/mL); Fu [15]: 0.31%; clearance [16]: 18 mL/min/kg; AUC(0-inf) [17]: 5.5 µM·h; bioavailability [18]: 3% |
| COCc1cc(C(=O)Nc2cc([C@H]3CC[C@@H](OC(=O)NC(C)C)C3)[nH]n2)n(C)n1 [TEGTOCICLIB] |  |  |  |  | 160 |  |  |  |  |
| CNS(=O)(=O)c1ccc(Nc2ncc3ccc(C(=O)N4CCC[C@@H]4C)cc3n2)cc1 | 76 | 19 | 0.34 | 150 |  |  | 850 |  |  |
| CNS(=O)(=O)c1ccc(Nc2ncc3ccc(C(=O)N4CC[C@@H]4C)nc3n2)c(F)c1 | 50 | 18 | 0.18 | 250 | 38 | 50 |  | 15 | t1/2 ([11]; mouse, iv, 1 mg/kg, 5 min): 17.4 min; Vdss ([12]; mouse, iv, 1 mg/kg, 5 min): 1.1 L/kg; logD [13]: 1.8; efflux ratio at 5 µM (MDR1): 13; solubility kinetic [14]: 31 µM (≈ 13.3 µg/mL); Fu [15]: 0.26%; AUC(0-inf) [17]: 11 µM·h; bioavailability [18]: 9%; inhibition [19]: Active; inhibition in vivo at 80 mg/kg (OVCAR-3 [20]): 85% |
| CNS(=O)(=O)c1ccc(Nc2ncc3ccc(C(=O)N4CCC[C@@H]4C)cc3n2)c(C)c1 | 75 | 18 | 0.16 | 813 |  |  | 4800 |  |  |
| CNS(=O)(=O)c1ccc(Nc2ncc3ccc(C(=O)N4C[C@@H](OC)[C@@H]4C)nc3n2)c(F)c1 | 51 | 9.4 | 0.18 | 178 | 25 | 52 |  | 17 | half-life [11]: 19.8 min; Vd [12]: 0.78 L/kg; logD [13]: 1.7; efflux ratio at 5 µM (MDR1): 16; solubility kinetic [14]: 33 µM (≈ 15.2 µg/mL); Fu [15]: 0.28%; clearance [16]: 39 mL/min/kg; AUC(0-inf) [17]: 13 µM·h; bioavailability [18]: 25%; inhibition [19]: Active; inhibition in vivo at 125 mg/kg (OVCAR-3 [21]): 81%; inhibition in vivo at 50 mg/kg (OVCAR-3 [22]): 112% |
| CNS(=O)(=O)c1ccc(Nc2ncc3ccc(C(=O)N4C[C@@H](F)C[C@@H]4C)nc3n2)c(C)c1 | 19 | 12 | 0.63 | 270 | 250 | 48 |  | 1.6 |  |
| O=C(c1ccc2cnc(NC3CCOCC3)cc2n1)N1CCCCC1 |  |  | 920 |  |  |  | 4.3 |  |  |
| CNS(=O)(=O)c1ccc(Nc2ncc3ccc(C(=O)N4C[C@@H](F)[C@@H]4C)nc3n2)c(F)c1 | 50 | 17 | 0.21 | 271 | 33 | 88 |  | 15 |  |
